Bridge positions count the residues as written; N and C are the ends. Ends that are not written are not given here. Peptide text beside a SMILES is read from it.
What was measured:
hMC3R [1] = target: T1, hMC3R (Homo sapiens, UniProt P41968); settings: cited from earlier work
T1 construct: expressed in transfected cells; host or cells: HEK-293

hMC4R = target: T2, hMC4R (Homo sapiens, UniProt P32245); settings: cited from earlier work
T2 construct: expressed in transfected cells; host or cells: HEK-293

[2] = cooperative folding, Jackson et al., 2002; cited from earlier work
[3] = cited from earlier work; for Feeding response compared with AgRP: literature
male Long-Evans rats = experiment: Feeding and body mass after single third cerebral ventricle (ICV) injection; assay type: in vivo, rat; settings: single 1.0 nmol ICV dose; for Initial (24 hour) feeding response, in words: first 24 hours
hMC3R [4] = target: T1, hMC3R; settings: cAMP, NDP-MSH stimulated; data adapted from the literature (footnote c); read-out: EC50, MC3R; cited from earlier work

T1 sequence (P41968 whole entry): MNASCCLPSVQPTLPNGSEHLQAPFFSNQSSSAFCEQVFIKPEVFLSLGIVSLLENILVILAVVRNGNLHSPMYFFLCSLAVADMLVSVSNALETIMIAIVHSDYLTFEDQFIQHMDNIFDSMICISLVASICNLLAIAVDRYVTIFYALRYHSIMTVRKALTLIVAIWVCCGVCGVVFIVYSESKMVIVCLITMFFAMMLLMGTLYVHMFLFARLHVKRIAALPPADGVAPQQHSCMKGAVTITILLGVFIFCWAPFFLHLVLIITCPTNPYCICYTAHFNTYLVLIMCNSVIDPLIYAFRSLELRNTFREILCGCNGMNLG
T2 sequence (P32245 whole entry): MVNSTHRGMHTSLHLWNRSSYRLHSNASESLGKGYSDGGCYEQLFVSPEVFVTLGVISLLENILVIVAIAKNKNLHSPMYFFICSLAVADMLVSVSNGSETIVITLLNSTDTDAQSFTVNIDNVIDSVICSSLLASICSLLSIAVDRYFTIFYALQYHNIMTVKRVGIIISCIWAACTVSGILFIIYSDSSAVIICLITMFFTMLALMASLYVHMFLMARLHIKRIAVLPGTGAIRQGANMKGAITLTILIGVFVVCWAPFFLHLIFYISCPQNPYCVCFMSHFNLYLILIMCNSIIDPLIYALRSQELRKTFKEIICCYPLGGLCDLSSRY

## CC(=O)N[C@H]1CSSC[C@@H]2NC(=O)[C@@H]3CSSC[C@@H](C(=O)N[C@@H](CCCNC(=N)N)C(N)=O)NC(=O)[C@H](Cc4ccc(O)cc4)NC(=O)[C@@H]4CSSC[C@H](NC(=O)[C@H](Cc5ccc(O)cc5)NC(=O)[C@H](CSSC[C@H](NC(=O)[C@H](CO)NC(=O)[C@H](CCC(=O)O)NC(=O)[C@H](Cc5c[nH]cn5)NC(=O)[C@H](CC(C)C)NC(=O)[C@H](CCCNC(=N)N)NC(=O)[C@H](C(C)C)NC1=O)C(=O)N[C@@H](CC(C)C)C(=O)NCC(=O)N[C@@H](CCC(N)=O)C(=O)N[C@@H](CCC(N)=O)C(=O)N[C@@H](C(C)C)C(=O)N1CCC[C@H]1C(=O)N3)NC(=O)[C@H]([C@@H](C)O)NC(=O)[C@H](C)NC(=O)[C@H](C)NC(=O)[C@@H]1CCCN1C(=O)[C@H](CC(=O)O)NC2=O)C(=O)N[C@@H](CCCNC(=N)N)C(=O)N[C@@H](Cc1ccccc1)C(=O)N[C@@H](Cc1ccccc1)C(=O)N[C@@H](CC(N)=O)C(=O)N[C@@H](C)C(=O)N[C@@H](Cc1ccccc1)C(=O)N4 [AgRP(87-120)] (Ac-CVRLHESCLGQQVPCCDPAATCYCRFFNAFCYCR-NH2; disulfide 1-16, 8-22, 15-33, 24-31 (inferred); C-terminus assumed)
hMC3R [1]; previous study
  Dissociation constant at Mc3R compared with mature AgRP(83-132): equivalent to mature AgRP(83-132)
hMC4R; previous study
  Dissociation constant at Mc4R compared with mature AgRP(83-132): equivalent to mature AgRP(83-132)
[2]
  Folding stability: indistinguishable from AgRP(83-132)

## MTII
[3]; injected after AgRP
  Feeding after injection following AgRP administration: transiently reduces feeding

## SHU9119
[3]
  Feeding response compared with AgRP: long-term response similar to AgRP

## mature wild type human Agouti-Related Protein, SSRR-CVRLHESCLGQQVPCCDPCATCYCRFFNAFCYC-RKLGTAMNPCSRT (SSRRCVRLHESCLGQQVPCCDPCATCYCRFFNAFCYCRKLGTAMNPCSRT; not fully specified (bridges); ends and bridges not checked; listed as Homo sapiens) [AgRP(83-132)]
Male Long-Evans rats
  Feeding increase over control at three or four days after injection: about 30%
  Initial (24 hour) feeding response, in words: the most potent
Male Long-Evans rats; listed as AgRP
  Initial (24 hour) feeding response, in words: greatly stimulate feeding
Male Long-Evans rats; first 24 hr
  Feeding increase over control after one day: ~80%
hMC4R; displacement of 125I-NDP-MSH, data adapted from the literature (footnotes a, d), read-out: Ki, MC4R
  Ki: 11 ± 0.7 nM

## neuropeptide Y [neuropeptide Y (NPY)]
[3]
  Feeding response compared with AgRP: feeding returns to baseline after 24 hours

## truncated AgRP lacking the N-terminal SSRR segment: CVRLHESCLGQQVPCCDPCATCYCRFFNAFCYC-RKLGTAMNPCSRT [AgRP(87-132)]
hMC3R [1]; displacement of 125I-NDP-MSH, data adapted from the literature (footnote a), read-out: Ki, MC3R
  Ki: 5.2 ± 0.7 nM
hMC3R [4]
  EC50: 8.9 ± 0.2 nM

Reference: patent US9394343B2, “Appetite stimulating protein” (The Regents of the University of California, priority 2011, dated 2016)
